{"source": "patent US8048924B2", "about": "“Methods and compositions employing 4-aminophenylacetic acid compounds” (Biocon Limited, priority 2001, dated 2011)", "key": {"[1]": {"test": "Single oral dose plasma pharmacokinetics and elimination of APAZA and metabolites in mice", "assay_type": "in vivo, male CD-1 mice", "protocol": "Initial single dose pharmacokinetic studies with the APAZA™ compound have been conducted in dogs and mice. A study was completed in order to determine the plasma pharmacokinetics and elimination of the APAZA™ compound and its metabolites (5-ASA, 4-APAA, 5-aceASA and 4-aceAPAA) following single oral dose administration to male CD-1 mice. […] When normalized to molar values, the Cmax values for all the APAZA™ metabolites were less than APAZA™; the values ranged from 2.68 to 13.8 μM. However, the normalized APAZA™ AUC∞ value was not greater than all the other metabolites; these values ranged from […]. […] The Tmax values for APAZA™ and its metabolites were 1 hour and 4 hours, respectively."}, "[2]": {"tested_on": "Clostridium difficile toxin A-induced colitis", "test": "Toxin A-induced colitis, acute intraluminal pretreatment of isolated colonic segment", "assay_type": "in vivo, Sprague-Dawley rats", "conditions": "for toxin A-induced structural damage of the colon (H&E) / percent inhibition of toxin A-induced MPO activity / percent inhibition of toxin A-induced luminal fluid accumulation: 30 minutes before toxin A; for relative potency and interaction for inhibition of acute toxin A-induced colitis: given alone versus together", "protocol": "Drug Administration. In studies using chronic administration, sulfasalazine, APAZA™, and 4-APAA were administered in the drinking water at doses ranging from 0.1-100 mg/kg·d for 5 days. Sulfasalazine and APAZA™ were initially dissolved in 0.1 N NaOH at 30 times the desired final concentration and then the pH was adjusted to 8.5 with 1 N HCl and the solution was diluted 30-fold with distilled water. 4-APAA was dissolved in water. On the fifth day, the rats were fasted overnight (with access to their drinking water±sulfasalazine, APAZA™, or 4-APAA ad lib), anesthetized, and isolated colonic segments were surgically created as described below. In studies using acute administration, the rats were pretreated by injection of 4-APAA at doses of 10 or 100 μg in 200 μl of PBS (pH 7.4) into the lumen of the colonic segment using a 27 ga syringe needle. Toxin A (10 μg) in 200 μl of PBS (pH 7.4) was tested alone or injected into the lumen of the colonic segment 30 minutes after 4-APAA using a 27 ga syringe needle.\nSurgery. Isolated colonic segments were created in male Sprague-Dawley rats (150-175 g) as described previously for isolated ileal segments (see, Gastroenterol. 111: 1272-1280 (1996) and Proc. Natl. Acad. Sci. USA 91: 947-951 (1994). Rats fasted overnight with free access to drinking water were anesthetized by intramuscular injection of 67 mg/kg ketamine:33 mg/kg xylazine. A midline abdominal incision was made and colonic segments 5 cm in length were created by ligation with 4-0 silk sutures, taking care not to disturb the vascular supply. Toxin A (10 μg) in 400 μl of PBS (pH 7.4) was injected into the lumen of the colonic segment using a 27 ga syringe needle. Control rats were prepared similarly and their colonic segments were injected with the vehicles. The midline incision was then closed with a running suture, and the rats were placed on a heating pad at 37° C. for 3 hours. After 3 hours, the rats were euthanized and samples of the treated colonic segments were taken for analysis in vitro.\nHistopathology. The severity of colonic histological damage was assessed using formalin-fixed, paraffin-embedded, H&E-stained sections.\nLuminal Fluid Accumulation. Luminal fluid accumulation was measured gravimetrically. After 3 hours of treatment, the isolated colonic segments were removed, weighed, and their lengths were measured. Luminal fluid accumulation is expressed as mg wet weight per cm length.\nMyeloperoxidase Activity. Myeloperoxidase (MPO) activity was measured as described previously (see, J. Invest. Dermatol. 78: 206-209 (1982)). Briefly, pieces of control and treated colonic segments were homogenized in 0.5% hexadecyltrimethylammonium bromide in 50 mM KH2PO4 (pH 6), freeze/thawed three times, centrifuged at 4° C. for 2 minutes, and then the absorbance of each supernatant was read at 460 nm at 0, 30, and 60 seconds after the addition of 2.9 ml of o-dianisidine dihydrochloride to 0.1 ml supernatant. The maximal change in absorbance per minute was used to calculate the units of MPO activity based on the molar absorbency index of oxidized o-dianisidine of 1.13×10^4 M^−1 cm^−1. The results are expressed as MPO units of activity per mg of tissue wet weight.\nAdult male Sprague-Dawley rats (175-225 grams body weight) were purchased from Charles River Labs (Raleigh, N.C.). 4-APAA and 5-ASA were separately injected into the lumen of an isolated segment of the rat colon at doses of 0.01, 0.1, 1, and 10 μg (in volumes of 200 μl) 30 minutes prior to injection of 10 μg of Clostridium difficile toxin A. In a follow-up study, a combined dose of 10 ng (0.01 μg) each of 4-APAA and 5-ASA was injected prior to toxin A.\n[…] Colonic inflammation was assessed by quantitating luminal fluid accumulation and myeloperoxidase content in the colonic segment tissue, and by examination of colonic structural damage using hematoxylin & eosin-stained sections of the treated colonic segment.\nSurgery. […]"}, "[3]": {"conditions": "0.01 μg (10 ng) each, intraluminal"}}, "note": "“Also recorded” adds a separate entry of the source.", "data": [{"compound": "Nc1ccc(CC(=O)O)cc1", "note": "[4-APAA, (4-aminophenyl)-acetic acid]", "values": [{"measurement": "plasma concentration at 24 hours", "setting": "[1]; single oral dose of APAZA, male CD-1 mice", "result": "below the limit of detection"}, {"measurement": "toxin A-induced MPO activity, significance of inhibition", "setting": "[2]; [3]", "result": "not significantly inhibited"}, {"measurement": "toxin A-induced luminal fluid accumulation, significance of inhibition", "setting": "[2]; [3]", "result": "significantly inhibited"}, {"measurement": "toxin A-induced structural damage of the colon (H&E)", "setting": "[2]; [3]", "result": "did not prevent"}, {"measurement": "toxin A-induced luminal fluid accumulation, significance of inhibition", "setting": "[2]; 0.1 μg intraluminal", "result": "significantly inhibited"}, {"measurement": "toxin A-induced structural damage of the colon (H&E)", "setting": "[2]; 0.1 μg intraluminal", "result": "preserved mucosal folding"}, {"measurement": "toxin A-induced MPO activity, significance of inhibition", "setting": "[2]; 1.0 μg intraluminal", "result": "significantly inhibited"}, {"measurement": "toxin A-induced luminal fluid accumulation, significance of inhibition", "setting": "[2]; 1.0 μg intraluminal", "result": "significantly inhibited"}, {"measurement": "toxin A-induced structural damage of the colon (H&E)", "setting": "[2]; 1.0 μg intraluminal", "result": "preserved mucosal folding"}, {"measurement": "toxin A-induced MPO activity, significance of inhibition", "setting": "[2]; 10 μg intraluminal", "result": "significantly inhibited"}, {"measurement": "toxin A-induced luminal fluid accumulation, significance of inhibition", "setting": "[2]; 10 μg intraluminal", "result": "significantly inhibited"}, {"measurement": "percent inhibition of toxin A-induced MPO activity", "setting": "[2]; 10 μg intraluminal", "result": "91±8", "unit": "%"}, {"measurement": "percent inhibition of toxin A-induced luminal fluid accumulation", "setting": "[2]; 10 μg intraluminal", "result": "52±4", "unit": "%"}, {"measurement": "toxin A-induced structural damage of the colon (H&E)", "setting": "[2]; 10 μg intraluminal", "result": "strongly protected; also recorded: virtually completely protected"}, {"measurement": "percent inhibition of toxin A-induced MPO activity", "setting": "[2]; 100 μg intraluminal", "result": "89±10", "unit": "%"}, {"measurement": "percent inhibition of toxin A-induced luminal fluid accumulation", "setting": "[2]; 100 μg intraluminal", "result": "80±5", "unit": "%"}, {"measurement": "toxin A-induced structural damage of the colon (H&E)", "setting": "[2]; 100 μg intraluminal", "result": "strongly protected"}, {"measurement": "relative potency and interaction for inhibition of acute toxin A-induced colitis", "setting": "[2]", "result": "approximately equipotent"}, {"measurement": "lowest dose that strongly inhibited toxin A-induced colitis in this experiment", "setting": "[2]; intraluminal injection 30 minutes before toxin A, 10 and 100 μg tested", "result": 10, "unit": "μg/segment"}]}, {"compound": "Nc1ccc(O)c(C(=O)O)c1", "note": "[5-ASA, 5-amino-2-hydroxy-benzoic acid, reference compound]", "values": [{"measurement": "toxin A-induced MPO activity, significance of inhibition", "setting": "[2]; [3]", "result": "not significantly inhibited"}, {"measurement": "toxin A-induced luminal fluid accumulation, significance of inhibition", "setting": "[2]; [3]", "result": "significantly inhibited"}, {"measurement": "toxin A-induced structural damage of the colon (H&E)", "setting": "[2]; [3]", "result": "did not prevent"}, {"measurement": "toxin A-induced luminal fluid accumulation, significance of inhibition", "setting": "[2]; 0.1 μg intraluminal", "result": "significantly inhibited"}, {"measurement": "toxin A-induced structural damage of the colon (H&E)", "setting": "[2]; 0.1 μg intraluminal", "result": "partially preserved surface ulceration"}, {"measurement": "toxin A-induced MPO activity, significance of inhibition", "setting": "[2]; 1.0 μg intraluminal", "result": "significantly inhibited"}, {"measurement": "toxin A-induced luminal fluid accumulation, significance of inhibition", "setting": "[2]; 1.0 μg intraluminal", "result": "significantly inhibited"}, {"measurement": "toxin A-induced structural damage of the colon (H&E)", "setting": "[2]; 1.0 μg intraluminal", "result": "mucosal folding was also largely preserved"}, {"measurement": "toxin A-induced MPO activity, significance of inhibition", "setting": "[2]; 10 μg intraluminal", "result": "significantly inhibited"}, {"measurement": "toxin A-induced luminal fluid accumulation, significance of inhibition", "setting": "[2]; 10 μg intraluminal", "result": "significantly inhibited"}, {"measurement": "toxin A-induced structural damage of the colon (H&E)", "setting": "[2]; 10 μg intraluminal", "result": "virtually completely protected"}, {"measurement": "relative potency and interaction for inhibition of acute toxin A-induced colitis", "setting": "[2]", "result": "approximately equipotent"}]}, {"compound": "O=C(O)Cc1ccc(/N=N/c2ccc(O)c(C(=O)O)c2)cc1", "note": "[APAZA™, 5-(4-carboxymethyl-phenylazo)-2-hydroxy-benzoic acid]", "values": [{"measurement": "AUC(0-inf)", "setting": "[1]; male, CD-1, mouse, in vivo, po", "result": 7430, "unit": "ng·h/mL"}, {"measurement": "Cmax", "setting": "[1]; male, CD-1, mouse, in vivo, po", "result": 5930, "unit": "ng/mL"}, {"measurement": "Tmax", "setting": "[1]; male, CD-1, mouse, in vivo, po", "result": 1, "unit": "h"}, {"measurement": "half-life", "setting": "[1]; male, CD-1, mouse, in vivo, po", "result": 3.34, "unit": "h"}, {"measurement": "plasma concentration at 24 hours", "setting": "[1]; mouse, in vivo, po", "result": "below the limit of detection"}]}]}
